We go through 13 compounds from PubChem BioAssay (NCI).

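Growth conditions: 96-well plates. Treatment: test compound, 48 hours, 5 concentrations. Analysis: linear interpolation between bracketing concentrations; unreached endpoints set to highest concentration. TGI marks complete inhibition of growth.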 Some results are limits rather than exact numbers.

Among the test systems are 786-0 renal; EKVX NSCLC; HCC-2998 colon; HCT-15 colon; HT29 colon; IGROV1 ovarian; MALME-3M melanoma; MDA-MB-435; MDA-N; MOLT-4 leukemia; T-47D breast.
What all share (assay): DTP human tumour cell line panel, 48 h

Broadly, the TGI is the concentration at which net growth stops. Low readings indicate more potent growth arrest, high ones less potent growth arrest.

Turning to `CC(=O)c1c2c(cc3c1CC1(Cc4cc5c(cc4C1)CCC5)C3)CCC2`, the TGI with 786-0 renal, with EKVX NSCLC, in the assay with HCC-2998 colon, with HCT-15 colon, with HT29 colon and in the assay with IGROV1 ovarian was above 100 µM each time. Further, the TGI in the assay with MALME-3M melanoma, in the assay on MDA-MB-435, in the assay on MDA-N, in the assay on MOLT-4 leukemia and with T-47D breast was above 100 µM in each case.

Consider `COc1ccccc1NC(=O)C(C#N)=C(SC)SC`, for which the concentration for total growth inhibition (TGI) in the assay with 786-0 renal, in the assay with EKVX NSCLC, in the assay with HCC-2998 colon, in the assay on HCT-15 colon, in the assay with HT29 colon and in the assay on IGROV1 ovarian was above 100 µM in each case. Besides, the TGI in the assay with MALME-3M melanoma, in the assay on MDA-MB-435, in the assay with MDA-N, in the assay with MOLT-4 leukemia and with T-47D breast was above 100 µM in each case.

For the compound `NC(=S)N/N=C/c1cc(CN2CCOCC2)c(N)cn1`, the TGI in the assay on 786-0 renal, in the assay on EKVX NSCLC, in the assay on HCT-15 colon, in the assay with HT29 colon, with IGROV1 ovarian and in the assay on MALME-3M melanoma was above 100 µM in each case. Further, the TGI in the assay on MDA-MB-435, with MDA-N, in the assay on MOLT-4 leukemia and in the assay with T-47D breast was above 100 µM each time.

Regarding `COc1ccc(CSCc2cc(OC)c(OC)c(OC)c2)cc1`, the TGI in the assay on 786-0 renal is above 100 µM; in the assay on EKVX NSCLC, above 31.6 µM; with HCC-2998 colon it was above 31.6 µM; in the assay on HCT-15 colon, above 100 µM; with HT29 colon it was above 100 µM; with IGROV1 ovarian it was above 100 µM. For the same compound, the TGI with MALME-3M melanoma is above 31.6 µM; with MDA-MB-435, above 81.3 µM; in the assay on MDA-N it was above 100 µM; in the assay on MOLT-4 leukemia, above 100 µM; with T-47D breast, above 100 µM.

For the compound `CSc1nc(=S)[nH]c2n[nH]c(C)c12`, the TGI with 786-0 renal, with EKVX NSCLC, with HCC-2998 colon, with HCT-15 colon, with HT29 colon and in the assay on MALME-3M melanoma was above 100 µM each time. For the same compound, the TGI with MDA-MB-435, in the assay on MDA-N, with MOLT-4 leukemia and with T-47D breast was above 100 µM throughout.

For the compound `COc1c(O)cc(/C=C/c2cc(O)cc3c2[C@@]2(C(=O)O3)c3c(O)cc(O)cc3OC2c2cccc(O)c2)cc1O` (stereo partly drawn), the TGI with 786-0 renal is above 100 µM; in the assay with HCT-15 colon, above 100 µM; in the assay with HT29 colon, 81.8 µM; in the assay with IGROV1 ovarian, above 100 µM; with MALME-3M melanoma it was above 100 µM; in the assay with MDA-MB-435, above 100 µM. For the same compound, the values for the TGI with MDA-N, with MOLT-4 leukemia and in the assay on T-47D breast were above 100 µM, 11 µM and above 100 µM, respectively.

`Cc1[nH]c2ncn(/N=C/c3ccccc3)c(=N)c2c1Cc1ccccc1`: the TGI in the assay on 786-0 renal, with EKVX NSCLC, in the assay on HCC-2998 colon, in the assay with HCT-15 colon, in the assay on HT29 colon and in the assay with IGROV1 ovarian was above 100 µM in each case. The TGI with MDA-MB-435, in the assay with MDA-N, with MOLT-4 leukemia and in the assay with T-47D breast was above 100 µM each time.

As to `CCOC(=O)CCc1c(C(=O)OCC)[nH]c(/C=C2/NC(=O)C(C)=C2CC)c1C`, the TGI with 786-0 renal is 46.2 µM; with HCT-15 colon it was 15.3 µM; in the assay with HT29 colon, 39.9 µM; with IGROV1 ovarian, 47.7 µM; in the assay on MALME-3M melanoma, 33.3 µM; in the assay on MDA-MB-435 it was 19.7 µM. Also, the figures for the TGI in the assay on MDA-N, with MOLT-4 leukemia and in the assay on T-47D breast were 26.6 µM, 13.1 µM and 9.59 µM, respectively.

`COc1ccc(/C=C/C(=O)NCC(NC(=O)/C=C/c2ccc(OC)c(OC)c2)C(=O)O)cc1OC` (stereo not drawn): the TGI in the assay with 786-0 renal, in the assay on EKVX NSCLC, in the assay on HCC-2998 colon, in the assay on HT29 colon, in the assay with MALME-3M melanoma and in the assay on MDA-MB-435 was above 100 µM in each case. Also, the TGI in the assay on MDA-N, with MOLT-4 leukemia and in the assay with T-47D breast was above 100 µM throughout.

As to `O=C(/C=C/c1ccc(O)c(O)c1)NC(CO)C(=O)O` (stereo not drawn), the TGI with 786-0 renal, in the assay on EKVX NSCLC, in the assay with HCC-2998 colon, in the assay with HCT-15 colon, in the assay with HT29 colon and in the assay with MALME-3M melanoma was above 100 µM in each case. The TGI with MDA-MB-435, in the assay with MDA-N, in the assay with MOLT-4 leukemia and in the assay on T-47D breast was above 100 µM throughout.

As for `CC1C2CC(C(C3C(=O)C4CC3C(C)(C)C4C)C2=O)C1(C)C` (stereo not drawn), the TGI in the assay on 786-0 renal, in the assay on EKVX NSCLC, in the assay on HCC-2998 colon, with HT29 colon, in the assay on IGROV1 ovarian and with MALME-3M melanoma was above 100 µM in each case. Further, the TGI with MDA-MB-435, with MDA-N, with MOLT-4 leukemia and in the assay with T-47D breast was above 100 µM each time.

Consider `CC1CN=C(NCc2ccccc2)S1` (stereo not drawn), for which the TGI in the assay with EKVX NSCLC, in the assay on HCC-2998 colon, in the assay on HCT-15 colon, in the assay on HT29 colon, in the assay on MALME-3M melanoma and with MDA-MB-435 was above 100 µM in each case. In addition, the TGI in the assay on MDA-N, in the assay on MOLT-4 leukemia and in the assay with T-47D breast was above 100 µM in each case.

As to `CN(C(=O)C1=CCCCCC1)c1ccccc1I`, the TGI in the assay with 786-0 renal was above 100 µM; in the assay with EKVX NSCLC, 80.4 µM; with HCC-2998 colon, above 100 µM; in the assay on HCT-15 colon it was above 100 µM; in the assay on IGROV1 ovarian it was above 100 µM; in the assay on MDA-MB-435, above 100 µM. Besides, the TGI in the assay on MDA-N, in the assay on MOLT-4 leukemia and in the assay with T-47D breast was above 100 µM each time.
